This experiment addresses T1, human ATR (adenosyltransferase) (Homo sapiens, UniProt Q96EY8).
T1 sequence (Q96EY8 33-250 limits assumed): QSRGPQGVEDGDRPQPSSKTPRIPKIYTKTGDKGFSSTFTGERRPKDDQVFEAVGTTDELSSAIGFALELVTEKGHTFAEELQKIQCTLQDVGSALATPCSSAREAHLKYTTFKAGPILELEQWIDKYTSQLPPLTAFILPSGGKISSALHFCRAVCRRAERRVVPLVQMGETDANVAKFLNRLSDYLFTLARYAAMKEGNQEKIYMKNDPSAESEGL
The experiment in a line: binding, method in supplement. The conditions noted are these: ATP in the third site of the crystal with Mg.

For `Nc1ncnc2c1ncn2[C@@H]1O[C@H](COP(=O)(O)OP(=O)(O)OP(=O)(O)O)[C@@H](O)[C@H]1O` [ATP], the Kd entry is given as “Electron density for AdoCbl was observed in two active sites”.

These data come from PMC6743335 (Journal of the American Chemical Society, 2018).
